Reference: patent US20250302783A1, “SYMPATHETIC NERVE ACTIVATION AGENT AND SYMPATHETIC NERVE ACTIVATION COMPOSITION” (MARUZEN PHARMACEUTICALS CO., LTD., priority 2022, published 2025)

Assays:
Assay type in all cases: in vivo, rat
[1] = tested on: distal branches of the sympathetic nerve innervating the right epididymal white adipose tissue; assay: White adipose tissue sympathetic nerve activity (WAT-SNA) after intragastric administration, Test Example 1; settings: urethane-anesthetized male rats, measured for 60 minutes, FIG. 1
Protocol: The effect of the intragastric administration of the compound represented by Structural Formula (1) on the activity of the sympathetic nerve innervating the white adipose tissue, the brown adipose tissue, the adrenal gland, or the liver was tested in the following manner. For the experiment, male Whistar rats (approximately 9 weeks old) each having a body weight of approximately 300 g were kept in a 24° C. thermostatic animal room for 1 week or longer with a 12-hour light-dark cycle (lighting from 8:00 to 20:00). On the day of the experiment, the rats were fasted for 3 hours, followed by anesthetizing with urethane. A cannula for intragastric administration was inserted into each of the rats, and then distal branches of the sympathetic nerve innervating the right epididymal white adipose tissue, the interscapular brown adipose tissue, the left adrenal gland, or the liver were lifted with a silver electrode, and the electrical activity thereof was measured. […] In addition, as a control, water serving as a solvent was intragastrically administered using the cannula at a dose of 0.5 mL/300 g of body weight, and the change in the neural activity of the distal branches of the above sympathetic nerves was measured electrophysiologically for 60 minutes. […]

[2] = tested on: distal branches of the sympathetic nerve innervating the interscapular brown adipose tissue; assay: Brown adipose tissue sympathetic nerve activity (BAT-SNA) after intragastric administration, Test Example 1; settings: urethane-anesthetized male rats, measured for 60 minutes, FIG. 2
Protocol: (§1) The effect of the intragastric administration of the compound represented by Structural Formula (1) on the activity of the sympathetic nerve innervating the white adipose tissue, the brown adipose tissue, the adrenal gland, or the liver was tested in the following manner. For the experiment, male Whistar rats (approximately 9 weeks old) each having a body weight of approximately 300 g were kept in a 24° C. thermostatic animal room for 1 week or longer with a 12-hour light-dark cycle (lighting from 8:00 to 20:00). On the day of the experiment, the rats were fasted for 3 hours, followed by anesthetizing with urethane. A cannula for intragastric administration was inserted into each of the rats, and then distal branches of the sympathetic nerve innervating the right epididymal white adipose tissue, the interscapular brown adipose tissue, the left adrenal gland, or the liver were lifted with a silver electrode, and the electrical activity thereof was measured. When the measurement value stabilized (at approximately 13:00), an aqueous solution of the compound represented by Structural Formula (1) (produced by Tokyo Chemical Industry Co., Ltd.) was intragastrically administered using the cannula at a dose of 15 mg/0.5 mL/300 g of body weight, 1.5 mg/0.5 mL/300 g of body weight, 0.15 mg/0.5 mL/300 g of body weight, or 0.015 mg/0.5 mL/300 g of body weight, and the change in the neural activity of the distal branches of the above sympathetic nerves was measured electrophysiologically for 60 minutes. In addition, as a control, water serving as a solvent was intragastrically administered using the cannula at a dose of 0.5 mL/300 g of body weight, and the change in the neural activity of the distal branches of the above sympathetic nerves was measured electrophysiologically for 60 minutes. […] The data of the neural activity was analyzed as the mean value of the firing rate per 5 seconds (pulse/5 s) every 5 minutes, and represented by a percentage relative to the mean value (a value at 0 minutes) at 5 minutes before the onset of stimulation being determined as 100%. […]

[3] = tested on: distal branches of the sympathetic nerve innervating the liver; assay: Hepatic sympathetic nerve activity (Hepatic-SNA) after intragastric administration, Test Example 1; settings: urethane-anesthetized male rats, measured for 60 minutes, FIG. 4
Protocol: as §1

[4] = tested on: distal branches of the sympathetic nerve innervating the left adrenal gland; assay: Adrenal sympathetic nerve activity (ASNA) after intragastric administration, Test Example 1; settings: urethane-anesthetized male rats, measured for 60 minutes, FIG. 3
Protocol: The effect of the intragastric administration of the compound represented by Structural Formula (1) on the activity of the sympathetic nerve innervating the white adipose tissue, the brown adipose tissue, the adrenal gland, or the liver was tested in the following manner. For the experiment, male Whistar rats (approximately 9 weeks old) each having a body weight of approximately 300 g were kept in a 24° C. thermostatic animal room for 1 week or longer with a 12-hour light-dark cycle (lighting from 8:00 to 20:00). On the day of the experiment, the rats were fasted for 3 hours, followed by anesthetizing with urethane. A cannula for intragastric administration was inserted into each of the rats, and then distal branches of the sympathetic nerve innervating the right epididymal white adipose tissue, the interscapular brown adipose tissue, the left adrenal gland, or the liver were lifted with a silver electrode, and the electrical activity thereof was measured. When the measurement value stabilized (at approximately 13:00), an aqueous solution of the compound represented by Structural Formula (1) (produced by Tokyo Chemical Industry Co., Ltd.) was intragastrically administered using the cannula at a dose of 15 mg/0.5 mL/300 g of body weight, 1.5 mg/0.5 mL/300 g of body weight, 0.15 mg/0.5 mL/300 g of body weight, or 0.015 mg/0.5 mL/300 g of body weight, and the change in the neural activity of the distal branches of the above sympathetic nerves was measured electrophysiologically for 60 minutes. In addition, as a control, water serving as a solvent was intragastrically administered using the cannula at a dose of 0.5 mL/300 g of body weight, and the change in the neural activity of the distal branches of the above sympathetic nerves was measured electrophysiologically for 60 minutes. […] The data of the neural activity was analyzed as the mean value of the firing rate per 5 seconds (pulse/5 s) every 5 minutes, and represented by a percentage relative to the mean value (a value at 0 minutes) at 5 minutes before the onset of stimulation being determined as 100%. FIG. 3 illustrates, as a percentage with respect to the mean value (a value at 0 minutes) at 5 minutes before the onset of stimulation being determined as 100%, the result of the change in the neural activity of distal branches of the sympathetic nerves for the adrenal gland (adrenal sympathetic nerve activity, ASNA) when the aqueous solution including 15 mg, 1.5 mg, 0.15 mg, or 0.015 mg of the compound represented by Structural Formula (1) was intragastrically administered at a dose of 0.5 mL/300 g of body weight, or water serving as the solvent was intragastrically administered at a dose of 0.5 mL/300 g of body weight.

[5] = 1.5 mg/0.5 mL/300 g of body weight
[6] = 15 mg/0.5 mL/300 g of body weight
[7] = 0.15 mg/0.5 mL/300 g of body weight

For `COc1cc(CCC(=O)O)ccc1O` [3-(4-hydroxy-3-methoxyphenyl) propionic acid], the “change in white adipose tissue sympathetic nerve activity (WAT-SNA) versus water control” value [1, 5] was “higher than the WAT-SNA value of the group to which water serving as the solvent was administered”, the “change in white adipose tissue sympathetic nerve activity (WAT-SNA) versus water control” value [1, 6] was “higher than the WAT-SNA value of the group to which water serving as the solvent was administered” and the “change in brown adipose tissue sympathetic nerve activity (BAT-SNA) versus water control” value (“change … (BAT-SNA) versus water control” below) [2, 7] was “higher than the BAT-SNA value of the group to which water serving as the solvent was administered”. For the same compound, the “change … (BAT-SNA) versus water control” value [2, 5] was “higher than the BAT-SNA value of the group to which water serving as the solvent was administered”, the “change … (BAT-SNA) versus water control” value [2, 6] was “higher than the BAT-SNA value of the group to which water serving as the solvent was administered” and the “change in hepatic sympathetic nerve activity (Hepatic-SNA) versus water control” value (“change … (Hepatic-SNA) versus water control” for short) [3, 7] was “higher than the Hepatic-SNA value of the group to which water serving as the solvent was administered”. For the same compound, the “change … (Hepatic-SNA) versus water control” value [3, 5] was “higher than the Hepatic-SNA value of the group to which water serving as the solvent was administered”, the “change … (Hepatic-SNA) versus water control” value [3, 6] was “higher than the Hepatic-SNA value of the group to which water serving as the solvent was administered” and the “change in adrenal sympathetic nerve activity (ASNA) versus water control” value (“change … (ASNA) versus water control” below) ([4]; 0.015 mg/0.5 mL/300 g of body weight) was “higher than the ASNA value of the group to which water serving as the solvent was administered”. For the same compound, the “change … (ASNA) versus water control” value [4, 7] was “higher than the ASNA value of the group to which water serving as the solvent was administered”, the “change … (ASNA) versus water control” value [4, 5] was “higher than the ASNA value of the group to which water serving as the solvent was administered” and the “change … (ASNA) versus water control” value [4, 6] was “higher than the ASNA value of the group to which water serving as the solvent was administered”.
